Assays:
Top1 in CL187 cells [1] = experiment: Intracellular Top1 enzyme activity assay; assay type: cell-based, Human; details: CL187 cells treated 6 h
Method: (§1) CL187 cells were treated with different concentrations of drugs for 6 h. The supernatant was discarded, and the cells were collected. The extracts of cytoplasm, mitochondria, and nucleus were obtained by the same method as described in Section 2.4.7. The protein concentration of each extract was detected by BCA kit. Enzyme activity reaction was carried out by using 125 ng super helical DNA (pHOT-1) and cell extract. The protein concentration of the extract was guaranteed to be the same in each group. The mixture solution of the pHOT-1 and the cell extract was added into the reaction buffer and incubated for 30 min at 37 °C. The reaction was terminated with loading buffer. The agarose gel electrophoresis was performed, and the images were collected.

Tdp1-over CL187 cells = experiment: Cell viability of Tdp1-overexpressing cells; assay type: cell-based, Human; details: Tdp1-over CL187; CPT 0.5 μM, FM 25 μM
Method: CL187 cells were cultured on 6-cm dishes at 37 °C for 24 h. The plasmid (2.5 μg) was diluted with 125 μL serum-free medium Opti-MEM, mixed gently, and incubated at room temperature for 5 min. Lipo 3000 (Invitrogen, Waltham, MA, USA) were diluted with 125 μL serum-free medium Opti-MEM, mixed and incubated for 5 min. Mixed the plasmid and Lipo 3000, incubated at room temperature for 20 min, the mixture was added to CL187 cells, the Tdp1 overexpressed plasmid were transfected into CL187 cells.
PTE or RE were dissolved in DMSO and diluted with culture medium to 1–100 μM. The final concentration of DMSO was less than 0.1%, and 0.1% DMSO as negative control. CPT, as Top1 inhibitor, was diluted to 0.5 μM [36, 37], and FM, as Tdp1 inhibitor was diluted to 25 μM [38]. Exponentially growing cells were seeded in 96-well plates (5 × 10^3 cells/well) for 12 h. […] Cell viability was determined by CCK-8 (Beyotime Biotechnology, Shanghai, China) assay. Cell viability and inhibition rate were calculated with the following formulae:Cell viability (%) = [OD450 (sample)/OD450 (control)] × 100(1) Inhibition rate (%) = […] − cell viability (%)(2)
The drug concentration required for inhibiting cell proliferation by 50% (IC50) was determined by interpolation from dose-response curves.

siRNA-Tdp1 CL187 cells = experiment: Cell viability of Tdp1-silenced cells; assay type: cell-based, Human; details: siRNA-Tdp1 CL187, CPT 0.5 μM; for sensitivity / efficacy of positive controls: FM 25 μM
Method: (§2) PTE or RE were dissolved in DMSO and diluted with culture medium to 1–100 μM. The final concentration of DMSO was less than 0.1%, and 0.1% DMSO as negative control. […] Exponentially growing cells were seeded in 96-well plates (5 × 10^3 cells/well) for 12 h. Various drugs were added separately and incubated for 24, 48, and 72 h. Cell viability was determined by CCK-8 (Beyotime Biotechnology, Shanghai, China) assay.

siRNA-Top1 CL187 cells = experiment: Cell viability of Top1-silenced cells; assay type: cell-based, Human; details: siRNA-Top1 CL187; CPT 0.5 μM, FM 25 μM
Method: as §2

Top1 in CL187 cells [2] = biological target: Top1 in CL187 cells (Homo sapiens, UniProt P11387); experiment: Intracellular Top1 enzyme activity assay; assay type: cell-based; design: endogenous in cells; host or cells: CL187 cells (nuclear, mitochondrial and cytoplasmic extracts); details: CL187 cells treated 6 h; CPT at 50 μM
Method: as §1

Top1 = biological target: T1, Top1 (Homo sapiens, UniProt P11387); experiment: Direct Top1 enzyme activity (DNA relaxation) assay; assay type: biochemical; details: gel electrophoresis
T1 construct: purchased TopoGEN, Buena Vista, CO, USA
T1 sequence (P11387 1-765): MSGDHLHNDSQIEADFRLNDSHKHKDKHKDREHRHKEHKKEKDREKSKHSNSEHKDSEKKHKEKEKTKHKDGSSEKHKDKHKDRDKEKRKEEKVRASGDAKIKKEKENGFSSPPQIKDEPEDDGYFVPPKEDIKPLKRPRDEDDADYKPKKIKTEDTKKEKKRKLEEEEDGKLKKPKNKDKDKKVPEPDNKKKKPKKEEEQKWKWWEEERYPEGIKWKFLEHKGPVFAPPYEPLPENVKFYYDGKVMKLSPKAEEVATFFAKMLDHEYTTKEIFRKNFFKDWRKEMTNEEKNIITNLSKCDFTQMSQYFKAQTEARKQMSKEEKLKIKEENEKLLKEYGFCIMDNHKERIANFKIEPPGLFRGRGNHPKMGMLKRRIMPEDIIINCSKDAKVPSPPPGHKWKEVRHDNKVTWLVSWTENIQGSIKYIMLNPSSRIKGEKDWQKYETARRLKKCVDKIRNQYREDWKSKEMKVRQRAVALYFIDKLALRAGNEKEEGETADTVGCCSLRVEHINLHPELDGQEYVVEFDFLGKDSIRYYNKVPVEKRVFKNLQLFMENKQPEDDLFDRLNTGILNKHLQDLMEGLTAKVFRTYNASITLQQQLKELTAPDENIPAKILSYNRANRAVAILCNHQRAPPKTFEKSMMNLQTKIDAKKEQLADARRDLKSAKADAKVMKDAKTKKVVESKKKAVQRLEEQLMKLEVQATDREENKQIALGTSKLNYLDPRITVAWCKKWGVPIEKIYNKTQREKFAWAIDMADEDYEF
Method: Different concentrations of the drug solution were prepared. The solvent was used as negative control group, and CPT (50 μM) was used as the positive control group. Each sample included 2 units of Top1 (TopoGEN, Buena Vista, CO, USA) and 250 ng super helical DNA (pHOT-1, TopoGEN, Buena Vista, CO, USA). The samples were incubated for 30 min at 37 °C, and then the reaction was stopped with SDS. After digestion with proteinase K (50 μg/mL, 60 min at 37 °C), samples were separated through electrophoresis (1% agarose gel). The electrophoresis was conducted at 180 V constant pressure for 20 min. The gel was immersed in the dye without EB for 30 min, and the images were collected by gel imaging system (Tanon-1600B, Shanghai, China).

[3] = test system: orthotopic CL187 xenograft; experiment: Orthotopic CL187 xenograft model; assay type: in vivo, BABLc/nude mice
Method: (§3) The mice were anaesthetized with 10% chloral hydrate and fixed on the operating table. After the abdomen of the mice was disinfected with iodine, a small section of the large intestine was squeezed out of the surgical opening. The 0.1 mL (per mouse) CL187 cell suspension (1 × 10^7 /mL) was inoculated into the colon wall of nude mice. After the inoculation, the large intestine was placed into the mouse abdominal cavity. After the wound was sutured, the mice were put into cages until they naturally woke up. After 10 days of inoculation, the animals were randomly divided into 4 groups (6 mice per group). Vector control group was intraperitoneally injected with 5% DMSO and 95% saline containing 30% HP-β-CD (i.p.). The drug dosage was designed according to the results of the previous pharmacokinetic experiment. Experimental Group 1 was intraperitoneal injected (i.p.) with PTE 100 mg/kg, and experiment Group 2 was intragastric administrated (i.g.) with PTE 500 mg/kg, once a day. The bioavailability of PTE was the same in the animals in the above regimens. Positive control group was injected with irinotecan, 20 mg/kg, twice a week. During the experiment, the changes of body weight of nude mice were recorded. After 21 days, the nude mice were sacrificed, the tumor blocks were removed surgically, weighed, and recorded.
Tumor and organ tissues were paraffin-embedded and sectioned into […] after being fixed in 4% of paraformaldehyde solution for 24 h. The sections were deparaffinized and rehydrated before detection. For histological observation, tumor sections were stained with hematoxylin and eosin (HE), and then observed by an inverted microscopy (Olympus, Japan).
For immunohistochemistry analysis, the sections were treated with 3% hydrogen peroxide for 10 min to block endogenous peroxidase, and then incubated with Ki67 primary antibody for overnight at 4 °C. Subsequently, the sections were treated with secondary antibody at room temperature for 20 min. After being washed with PBS, the sections were incubated with DAB chromogenic solution for 10 min, followed by rewashing in PBS. The sections were counterstained with hematoxylin after DAB coloration. The antibody specificity was confirmed by negative control without primary antibody treatment. Immunopositive areas were observed by an inverted microscope (Olympus, Japan).

[4] = test system: liver, kidney, lung, and paracancerous colon tissues; experiment: HE staining of organs of orthotopic xenograft mice; assay type: in vivo; details: orthotopic xenograft nude mice
Method: as §3, with “and recorded. Tumor and organ tissues were paraffin-embedded and sectioned into […] after being fixed in 4% of paraformaldehyde solution for 24 h. The sections were deparaffinized and rehydrated before detection. For histological observation, tumor sections were stained with hematoxylin and eosin (HE), and then observed by an inverted microscopy (Olympus, Japan).” for “and recorded.”

[5] = test system: subcutaneous CL187 xenograft; experiment: Subcutaneous CL187 xenograft model; assay type: in vivo, BABLc/nude mice
Method: CL187 cell suspension was collected at 1 × 10^6 /mL, and 0.1 mL cell was inoculated into the right inguinal region of nude mice. The tumor was no metastasis. The diameter of the transplanted tumor in nude mice was measured with a vernier caliper. After 16-day inoculation (the tumor grew to 90 mm^3), the animals were randomly divided into 7 groups (6 mice per group). The drug was administered by intraperitoneal injection. Blank control group was injected with saline. […] According to the preliminary test results. […] Positive control group was injected with irinotecan (20 mg/kg) twice a week, During the experiment, the changes of body weight of nude mice were recorded, and the anti-tumor effect of the samples was dynamically investigated by measuring tumor diameter. On Day 31 post treatment, the nude mice were sacrificed, and the tumor blocks were removed surgically, weighed, and recorded.

[6] = 20 mg/kg-i.p. twice a week, 21 days

SMILES: CC[C@@]1(O)C(=O)OCc2c1cc1n(c2=O)Cc2cc3ccccc3nc2-1 [CPT, camptothecin, reference compound]
- concentration with the same inhibitory effect on intracellular Top1 enzyme activity (Top1 in CL187 cells [1]; cell extracts + SC DNA): 50 µM
- Top1 enzyme activity in mitochondria (Top1 in CL187 cells [1]; CPT at 50 μM): significantly inhibited
- sensitivity / response of cells to positive controls (Tdp1-over CL187 cells): significantly reduced
- inhibition at 0.5 µM (siRNA-Tdp1 CL187 cells; Homo sapiens, read-out: cell inhibition rate): ~90%
- sensitivity / efficacy of positive controls (siRNA-Tdp1 CL187 cells): significantly increased
- inhibitory effect on cell proliferation of positive controls (siRNA-Top1 CL187 cells): hardly exhibited inhibitory effect on cell proliferation
- Top1 enzyme activity in the nucleus (Top1 in CL187 cells [2]): significantly inhibited
- inhibition of Top1 enzyme activity (SC DNA relaxation) (Top1; 30 min incubation, CPT at 50 uM): could inhibit Top1 enzyme activity
- concentration exhibiting the same inhibitory effect on Top1 enzyme activity (Top1; relaxation of supercoiled pHOT-1 DNA, 30 min): 50 µM

SMILES: CCc1c2c(nc3ccc(OC(=O)N4CCC(N5CCCCC5)CC4)cc13)-c1cc3c(c(=O)n1C2)COC(=O)[C@]3(O)CC [CPT-11, irinotecan]
- degree of tumor necrosis (HE) ([3]; 20 mg/kg-i.p.): +++ (+++ denotes the ratio between 1/2 and 3/4)
- Tumor Inhibitory Rate [3, 6]: 62.91 ± 11.78%
- Tumor Weight [3, 6]: 0.81 ± 0.20 g
- Ki67 labeling rate in tumor tissue ([3]; 20 mg/kg-i.p., vector control 46.53±3.86%): 22.46 ± 6.78%
- effect on lung inflammation (HE sections) [4]: could aggravate the inflammatory response
- Tumor Weight ([5]; 20 mg/kg i.p. twice a week, Day 31): 1.18 ± 0.12 g
- adverse reactions during the entire treatment process ([5]; subcutaneous CL187 xenograft nude mice, CPT-11 20 mg/kg, PTE 25-200 mg/kg i.p.): severe diarrhea, lassitude, and other adverse reactions

SMILES: Cl.Cl.N=C(N)c1ccc(-c2ccc(-c3ccc(C(=N)N)cc3)o2)cc1 [FM, Furamidine dihydrochloride, reference compound]
- sensitivity / response of cells to positive controls (Tdp1-over CL187 cells): good response
- sensitivity / efficacy of positive controls (siRNA-Tdp1 CL187 cells): failed to exert its efficacy
- inhibitory effect on cell proliferation of positive controls (siRNA-Top1 CL187 cells): significantly enhancing the inhibitory effect on the cells
